Assay results published in PMC8521408 (Journal of Antimicrobial Chemotherapy, 2021).
Read-outs that look alike come from different tables or passages of the source.

Tests used:
[1] = Other clinical endpoints during ICU stay
[2] = for Covariate effect, CRGT on CL: exponent of (CRGT/83) on CL
[3] = for Cumulative AUC: mean ± SD, SD
[4] = New-onset AKI during vancomycin treatment
[5] = final model estimate, scaled to 70 kg TBW, critically ill ICU patients
[6] = median of bootstrap of final model (1000 samples)

In the case of `CN[C@H](CC(C)C)C(=O)N[C@H]1C(=O)N[C@@H](CC(N)=O)C(=O)N[C@H]2C(=O)N[C@H]3C(=O)N[C@H](C(=O)N[C@H](C(=O)O)c4cc(O)cc(O)c4-c4cc3ccc4O)[C@H](O)c3ccc(c(Cl)c3)Oc3cc2cc(c3O[C@@H]2O[C@H](CO)[C@@H](O)[C@H](O)[C@H]2O[C@H]2C[C@](C)(N)[C@H](O)[C@H](C)O2)Oc2ccc(cc2Cl)[C@H]1O` [vancomycin], the “percentage of patients still on CVVH or other RRT at ICU discharge” value ([1]; CD group) is reported as 21.2%, the “percentage of patients with AKI at ICU discharge” value ([1]; CD group) is reported as 30.3% and the “percentage of patients with AKI using the maximum RIFLE score during the complete ICU stay” value ([1]; CD group) is reported as 59.4%. For the same molecule, the “mean AKI duration” value ([1]; CD group, fixed first dose 1000 mg) was 75.2 h, the “percentage of patients still on CVVH or other RRT at ICU discharge” value ([1]; LD group) was 31.7% and the “percentage of patients with AKI at ICU discharge” value ([1]; LD group) was 34.1%. The “percentage of patients with AKI using the maximum RIFLE score during the complete ICU stay” value ([1]; LD group) was 57.5%, the “mean AKI duration” value ([1]; LD group, 25 mg/kg loading dose) was 37.2 h and the “Covariate effect, CRGT on CL” value ([2]; bootstrap median) was 0.63. For the same molecule, the “Covariate effect, CRGT on CL” value ([2]; final model estimate) was 0.65, the “V1, vancomycin central volume of distribution” value [2, 5] was 13.4 L and the “V2, vancomycin peripheral volume of distribution” value [2, 5] was 36.9 L. For the same molecule, the “CL, vancomycin clearance” value [2, 6] was 1.83 L/h, the “V1, vancomycin central volume of distribution” value [2, 6] was 13.1 L and the “V2, vancomycin peripheral volume of distribution” value [2, 6] was 35.7 L. For the same molecule, the “median AUC0–24” value ([3]; CD group, fixed first dose 1000 mg (N = 39 courses)) was 401 µg·h/mL, the “percentage of courses achieving AUC0–24 ≥400 mg·h/L” value ([3]; CD group, fixed first dose 1000 mg (N = 39 courses), assuming MIC = 1 mg/L) was 53.8% and the “median AUC0–24” value ([3]; LD group, 25 mg/kg loading dose (N = 50 courses)) was 602 µg·h/mL. The “Cumulative AUC” value ([3]; all episodes included for model building (N = 104)) was 1937 ± 1448 µg·h/mL, the “percentage of courses with AUC0–24 > 600 mg·h/L” value ([3]; courses with a loading dose, 26/50) was 52% and the “Cumulative AUC” value ([3]; episodes with 25 mg/kg loading dose, LD group (N = 50)) was 2027 ± 1543 µg·h/mL. For the same molecule, the “Cumulative AUC” value ([3]; episodes without loading dose, CD group, first dose 1000 mg (N = 39)) was 1849 ± 1359 µg·h/mL, the “incidence of new-onset AKI” value ([4]; AUC0–24 < 400 mg·h/L, 4/27, all three groups) was 14.8% and the “incidence of new-onset AKI” value ([4]; AUC0–24 below 600 mg·h/L, 17/69) was 24.6%. For the same molecule, the “incidence of new-onset AKI” value ([4]; AUC0–24 ≥400 mg·h/L, 30/77, all three groups) was 39.0%, the “incidence of new-onset AKI” value ([4]; AUC0–24 ≥ 600 mg·h/L, 17/35) was 48.6% and the “number needed to harm (new-onset AKI)” value ([4]; AUC0–24 ≥400 versus < 400 mg·h/L) was 4.1. For the same molecule, the “percentage of patients with new-onset AKI” value ([4]; CD group, fixed first dose 1000 mg, 10/35 patients) was 28.6% and the “percentage of patients with new-onset AKI” value ([4]; LD group, 25 mg/kg loading dose, 17/45 patients) was 37.8%.
